Experimental data published in patent US20150353626A1, “APOLIPOPROTEIN A-I DERIVED PEPTIDES FOR TREATMENT OF HYPERGLYCAEMIA” (priority 2013, published 2015).

Assays:
AMPK = assay: Western blot for phosphorylated AMPK in L6 myotube lysates; type: cell-based; settings: L6 myotubes, 60 minutes; 2, 10 or 20 μmol/l 190-243 peptide; FIG. 8c
Method: (§1) Prior to stimulation or treatment cultured myoblast cells were serum starved for 4 hours in serum-free α-MEM and all subsequent treatments, including insulin or phenformin as positive controls (Sigma), were performed in serum free a-MEM. After treatments, cells were washed with ice cold PBS buffer and lysed on ice using a non-denaturing lysis buffer (1% Triton X-100, 50 mmol/l Tris, 150 mmol/l NaCl, pH 8.0) containing protease and phosphatase inhibitors (Roche). Lysates were centrifuged at 16,000×g, 20 minutes at 4° C. and BCA protein assay (Pierce) was performed on supernatants. Equal protein amounts were separated by SDS-PAGE and transferred to nitrocellulose membranes. pAMPK, AMPK, pACC, pAkt, Akt and tubulin were used for immunodetection with IRDye 800CW and 680RD secondary antibodies (LI-COR). Blots were imaged using the Odyssey Fc system and quantified using Image studio v2.0 software.
To dissect the effect of discoidal rHDL on a non-insulin dependent signaling pathway, we conducted western blotting using lysates from L6 myotubes incubated with rHDL. […] Phenformin was used as a positive control, inducing a 1.98±0.33-fold (p=≦0.05) and 2.7±0.74-fold (p=≦0.05) elevation of phosphorylated AMPK and ACC, respectively, at a concentration of 0.4 mmol/l. […] Representative immunoblots of those quantified for FIGS. 3a, c and f are given in FIGS. 3b, d and e, respectively. […]

[1] = Circular dichroism spectroscopy, alpha-helical content; type: physicochemical; settings: 0.2 mg/ml in PBS pH 7.4, 25° C.
Method: CD measurements were performed on a Jasco J-810 spectropolarimeter equipped with a Jasco CDF-4265 Peltier set to 25° C. ApoA-I (full-length and the 190-234 polypeptide fragment) was diluted to 0.2 mg/ml in PBS (final concentration was 25 mmol/l phosphate, 25 mmol/l NaCl, pH 7.4), placed in a 0.1 mm quartz cuvette and, after extensive purging with nitrogen, scanned in the region 200 to 260 nm (scan speed was 20 nm/min). Averages of five scans were baseline-subtracted (PBS; 25 mmol/l phosphate, 25 mmol/l NaCl) and the alpha-helical content was calculated from the molar ellipticity at 222 nm as previously described (Petrlova et al. (2012) J Lipid Res 53: 390-398).

Akt = assay: Western blot for phosphorylated Akt in L6 myotube lysates; type: cell-based; settings: L6 myotubes, 60 minutes
Method: as §1
To dissect the effect of discoidal rHDL on a non-insulin dependent signaling pathway, we conducted western blotting using lysates from L6 myotubes incubated with rHDL. […] Phenformin was used as a positive control, inducing a 1.98±0.33-fold (p=≦0.05) and 2.7±0.74-fold (p=≦0.05) elevation of phosphorylated AMPK and ACC, respectively, at a concentration of 0.4 mmol/l. […] For clarity 1 nmol/l insulin (n=2) and 100 nmol/l insulin (n=3) (51±12.5-fold; p=≦0.01) was plotted in FIG. 3e. Representative immunoblots of those quantified for FIGS. 3a, c and f are given in FIGS. 3b, d and e, respectively.
The effect of the peptide fragment 190-243 of human Apo A-I (SEQ ID NO: 1) on a non-insulin dependent signaling pathway, was tested using lysates from L6 myotubes as described above for rHDL. Myotubes were serum starved for 4 hours then treated for 60 minutes with 2, 10 or 20 μmol/l of 190-243 peptide, 1 mmol/l phenformin, 100 nmol/l insulin, or control (C) followed by western blot analysis for phosphorylated AMPK (AMP-activated protein kinase) or phosphorylated Akt. Tubulin was used as loading control. Blots shown are representative of three independent experiments.

[2] = system: insulin resistant C57Bl/6 mice; assay: Glucose tolerance test in high-fat diet fed (HFD) mice; type: in vivo, mouse
Method: Male C57BL/6 mice (Taconic) were used at 9-12 weeks of age. Animals were on a 12 hour light cycle with non-restricted food and water. The HFD animals were fed an HFD (D12492, 60% fat content; Research Diets) for 2 weeks. All animal procedures were approved by the Malmo/Lund Committee for Animal Experiment Ethics, Lund, Sweden. HFD mice fasted overnight (12 hours) were injected intra peritoneal (i.p.) with apoA-I peptides as listed above ([…] in PBS pH 7.4 for the 54-mer fragment and 6-7 mg/kg for other fragments in PBS, pH 7.4; control animals received NaCl) and this was followed by collection of serum samples at the indicated times. Glucose (50 mg/mouse) was injected i.p. 3 hours after treatments, followed by collection of serum samples at the indicated times. Blood glucose levels were measured (OnetouchUltra2; Lifescan), and insulin levels were assayed in serum using ELISA (Mercodia).

[3] = 7 mg/kg i.p., 120 minutes of the test

Row | Substance | levels of phosphorylated AMPK (in words) (AMPK) | helical content from molar ellipticity at 222 nm [1] | Akt phosphorylation (in words) (Akt; 2, 10 or 20 μmol/l 190-243 peptide, FIG. 8c) | increase of glucose-stimulated insulin secretion (AUC) versus control [2, 3] | reduction of total glucose (AUC) versus control [2, 3] | insulin secretion in glucose tolerance test (in words) ([2]; single i.p. injection 7 mg/kg, glucose load 3 hours later, FIG. 10c,d) | Akt phosphorylation (Akt; insulin 100 nmol/l) | Akt phosphorylation (Akt; rHDL 700 μg/ml apoA-I, insulin 1 nmol/l, ± S.D.)
1 | 190-243 polypeptide fragment: polypeptide fragment consisting of amino acids 190-243 of the full-length human apoA-I protein, C-terminal domain, 54-mer, recombinant (AEYHAKATEHLSTLSEKAKPALEDLRQGLLPVLESFKVSFLSALEEYTKKLNTQ; listed as Homo Sapiens) | increased levels of phosphorylated AMPK | 28% | unaffected | about 60% | about 40% | significantly improved |  | 
2 | insulin |  |  |  |  |  |  | 51±12.5 fold | 2.06±0.47 fold
